Data on three compounds can be found in patent US20080317875A1, “Inhibitor of PI3 kinase-dependent inflammatory cytokine synthesis and method for inhibiting the same” (priority 2006, published 2008).

One assay deals with IFN-γ. To be noted: MLN cells from mice day 6 after infection, 30 mM LiCO3 in drinking water, vs control group; FIG. 8E.
Another assay has as its system C. rodentium. To be noted: B10.D2 mice, vs control group.
Assay [1] concerns bone marrow-derived dendritic cells (BMDCs). The experiment in a line: IL-12p70 production in LPS-stimulated BMDCs after pretreatment with GSK3β inhibitor (ELISA). To be noted: BMDCs pretreated 1 hr with 10 nM SB216763 or 5 mM LiCl, then 1 μg/ml LPS for 24 hr; FIG. 7B. (In general: ELISA stands for enzyme-linked immunosorbent assay.)
Experimental: Bone marrow-derived dendritic cells (BMDCs) were isolated from wild-type mice by the method as described in Example 2. […] Meanwhile, after pretreatment for 1 hr with 10 nM GSK3β inhibitor SB216763 (Sigma) or 5 mM LiCl, the isolated BMDCs were stimulated with a 1 μg/ml LPS solution for 24 hr. The content of IL-12 in the culture supernatants after the stimulation was quantified using the ELISA kit specific to anti-mouse IL-12p70.

Experimental for C. rodentium: 200 μl of the culture (a volume equivalent to 2-3×10^8 colony-forming unit (cfu) per mouse) was infected into the mice by oral administration through the diet. Mice were sacrificed after continued housing for a designated period of time. A segment of the distal colon was excised at 4.5 cm from the rectum and the fecal pellets were removed by washing with PBS. After weight measurement and macroscopic observation of the tissue, homogenization was performed with a Potter Elvehjem homogenizer (digital homogenizer, As One). The homogenate was serially diluted with cold PBS and then seeded on MacConkey's agar plates (Difco Laboratories). The number of the colonies produced on the plate was counted to determine CFU per mouse to be used as an indicator of the degree of infection. […]
Wild-type B10.D2 mice were orally infected with C. rodentium by the method as described in Example 3. Three days after infection, the mice were divided into three groups, and one group was sacrificed and the weight of the colon cleared of lumps of feces was measured. […] Each group was housed for three more days, and six days after the infection, the mice in the experimental and control groups were sacrificed and the weight of the colon was measured. […]
Experimental for IFN-γ: The mesenteric lymph node (MLN) cells were isolated from the mesentery of the mice on day 12 of infection using a syringe needle. After cells were gently suspended, tissue fragments were removed by passing through a 100-μm mesh. Cells were then transferred to RPMI 1640 medium and culture was started at 37° C. Subsequently, the MLN cells were stimulated with bacterial lysate at 37° C. for 72 hr.
Meanwhile, MLN cells were isolated by the method as described in Example 3 from the mice 6 days after the oral infection. The isolated MLN cells were stimulated in vitro with C. rodentium lysate and IFN-γ produced was quantified by ELISA.

As to `O=C([O-])[O-].[Li+].[Li+]` [LiCO3, lithium carbonate], in the assay on IFN-γ, the “expression level of IFN-γ in the lymph node cells” value is on record as “decreased”. The “symptom of bacterial infection in the colon (colon weight, macroscopic and histopathological observation)” value in the assay with C. rodentium (30 mM LiCO3 in drinking water from day 3 to day 6 after infection, FIG. 8A-C) is given as “relieved”. Also, the “number of infecting bacteria in the colon (cfu)” value in the assay with C. rodentium (30 mM LiCO3 in drinking water, day 6 after infection, p<0.05, FIG. 8D) is on record as “significantly decreased”. In the case of `[Cl-].[Li+]` [LiCl, lithium chloride], in assay [1], the “production of IL-12 (IL-12p70 in culture supernatant)” value was “decrease”. Still for that read-out and setting: to `Cn1cc(C2=C(c3ccc(Cl)cc3Cl)C(=O)NC2=O)c2ccccc21` [SB216763, reference compound] belongs “decrease”.
